Assay results reported in the supplement of paper PMC10307832.

Key:
Test in all cases: relative viability (nuclei count vs DMSO), 5 days (fraction); higher = more cells survive
[1] = compound: C#Cc1cccc(Nc2ncnc3cc(OC)c(OCCCCCCC(=O)NO)cc23)c1 [CUDC-101] + NC(=O)Nc1cc(-c2cccc(F)c2)sc1C(=O)N[C@H]1CCCNC1 [AZD7762] (partner 0.2 µM)
Outline: (§1)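 Medians of duplicate plates are given as relative viability. That measure is the nuclei count in treated wells divided by the count in vehicle wells. Counts were taken on 4× images of lung cancer cell lines in 1536-well plates, 5 days after pin-tool dosing the day after seeding with one drug alone or a fixed anchor-drug dose plus five library-drug doses (not always all listed) in √10 steps.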

[2] = compound: C1=CC=C2C(=C1)N=C(S2)C(C#N)C3=NC(=NC=C3)NCCC4=CN=CC=C4 + COc1cccc2cc(-c3nc([C@H]4CC[C@H](C(=O)O)CC4)n4ncnc(N)c34)[nH]c12 [OSI-027] (partner 0.5 µM)
Outline: as §1

[3] = compound: COc1cc(N2CCC(N3CCN(C)CC3)CC2)ccc1Nc1ncc(Cl)c(Nc2ccccc2S(=O)(=O)C(C)C)n1 [NVP-TAE684] + Cc1nc(NC(=O)N2CCC[C@H]2C(N)=O)sc1-c1ccnc(C(C)(C)C(F)(F)F)c1 [Alpelisib] (partner 2 µM)
Outline: as §1

[4] = compound: COc1cc2/c(=N/c3ccc(Br)cc3F)nc[nH]c2cc1OCC1CCN(C)CC1 [Vandetanib] + Cc1nc(Nc2ncc(C(=O)Nc3c(C)cccc3Cl)s2)cc(N2CCN(CCO)CC2)n1 [Dasatinib] (partner 0.075 µM)
Outline: as §1

| Cell Line | relative viability ([1]; first compound 0.01 µM) | relative viability ([1]; first compound 0.03162 µM) | relative viability ([1]; first compound 0.1 µM) | relative viability ([1]; first compound 0.3162 µM) | relative viability ([1]; first compound 1 µM) | relative viability ([2]; first compound 0.005 µM) | relative viability ([2]; first compound 0.01581 µM) | relative viability ([2]; first compound 0.05 µM) | relative viability ([2]; first compound 0.1581 µM) | relative viability ([2]; first compound 0.5 µM) | relative viability ([3]; first compound 0.2 µM) | relative viability ([3]; first compound 0.6325 µM) | relative viability ([3]; first compound 2 µM) | relative viability ([4]; first compound 0.02 µM) | relative viability ([4]; first compound 0.06325 µM) | relative viability ([4]; first compound 0.2 µM) | relative viability ([4]; first compound 0.6325 µM) | relative viability ([4]; first compound 2 µM) |
| --- | --- | --- | --- | --- | --- | --- | --- | --- | --- | --- | --- | --- | --- | --- | --- | --- | --- | --- |
| EKVX | 0.84 | 0.68 | 0.656 | 0.771 | 0.563 | 0.736 | 0.909 | 0.681 | 0.69 | 0.659 | 0.936 | 0.781 | 0.63 | 0.547 | 0.566 | 0.498 | 0.602 | 0.374 |
| NCI-H23 | 0.293 | 0.161 | 0.282 | 0.276 | 0.226 | 0.566 | 0.552 | 0.474 | 0.601 | 0.614 | 0.856 | 0.62 | 0.484 | 0.882 | 0.806 | 0.821 | 0.797 | 0.728 |
| NCI-H2347 | 0.934 | 0.653 | 0.697 | 0.791 | 0.569 | 0.454 | 0.394 | 0.39 | 0.58 | 0.408 | 1.14 | 1.07 | 0.906 | 0.299 | – | 0.312 | 0.323 | 0.345 |
| LU99A | 0.301 | 0.297 | 0.247 | 0.198 | 0.104 | 0.269 | 0.278 | 0.297 | 0.323 | 0.3 | 0.594 | 0.524 | 0.328 | 0.427 | 0.521 | 0.387 | 0.416 | 0.636 |
| NCI-H596 | 1.09 | 1.09 | 1.12 | 1.07 | 1.04 | 0.541 | 0.682 | 0.595 | 0.826 | 0.674 | 0.526 | 0.517 | 0.375 | 0.498 | 0.659 | 0.646 | 0.585 | 0.596 |
| A-427 | 0.675 | 0.701 | 0.625 | 0.483 | 0.258 | 0.481 | 0.467 | 0.442 | 0.475 | 0.39 | 1.12 | – | 0.899 | 0.721 | 0.697 | 0.638 | 0.704 | 0.702 |
| LOU-NH91 | 0.754 | 0.751 | 0.741 | 0.798 | 0.556 | 0.673 | 0.689 | 0.703 | 0.733 | 0.729 | 0.68 | 0.623 | 0.532 | 0.53 | 0.433 | 0.506 | 0.442 | 0.317 |
| HCC-15 | 1.3 | 1.08 | 1.2 | 1.15 | 1.18 | 0.558 | 0.644 | 0.722 | 0.863 | 0.531 | 0.865 | 0.933 | 0.678 | 0.583 | 0.572 | 0.632 | 0.639 | 0.606 |
| LCLC-103H | 0.674 | 0.739 | 0.761 | 0.877 | 0.675 | 0.387 | 0.521 | 0.41 | 0.505 | 0.397 | 0.99 | 0.986 | 0.995 | 0.511 | 0.422 | 0.43 | 0.424 | 0.47 |
